Measurements: patent US9234006B2, “Compounds” (Novacta Biosystems Limited, priority 2011, dated 2016)
Structures can show the parent of a compound that is named as a salt. Where a SMILES comes first, the peptide text is derived from it. Bridges are numbered along the chain shown (N, C = ends). [ ]: non-standard residue; d: D form. ξ: configuration not given here. Thr(3ξ) = CC(O)[C@H](N)C(=O)O; Dab = NCC[C@H](N)C(=O)O; Ahp = NCCCCCCC(=O)O; βAla = NCCC(=O)O

Legend:
P. aeruginosa ATCC10145 = assay: MIC susceptibility testing, broth microdilution in CaMHB; format: cell-based, Pseudomonas aeruginosa; settings: Table 4
Procedure, shortened: (§1)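 Colonies from fresh MHA grown overnight in CaMHB at 37° C, 250 rpm for 18-20 hours, diluted 100-fold and regrown to OD600 0.2-0.3 […]. Actively growing culture diluted 100-fold in fresh medium as inoculum; assays run in duplicate.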

P. aeruginosa ATCC 9721 = assay: as above; format: cell-based, Pseudomonas aeruginosa; settings: P. aeruginosa ATCC 9721; Table 4
Procedure, shortened: as §1

[1] = system: P. aeruginosa ATCCCRM-9027; assay: as above; format: cell-based, Pseudomonas aeruginosa; settings: P. aeruginosa ATCCCRM-9027; Table 4
Procedure, shortened: as §1

P. aeruginosa ATCC27853 = assay: as above; format: cell-based, Pseudomonas aeruginosa
Procedure, shortened: as §1

A. baumannii NCTC13423 = assay: as above; format: cell-based, Acinetobacter baumannii; settings: Table 4
Procedure, shortened: as §1

A. baumannii NCTC7844 = assay: as above; format: cell-based, Acinetobacter baumannii; settings: Table 4
Procedure, shortened: as §1

A. baumannii ATCCBAA-747 = assay: as above; format: cell-based, Acinetobacter baumannii; settings: Table 4
Procedure, shortened: as §1

A. baumannii ATCC19606 = assay: as above; format: cell-based, Acinetobacter baumannii
Procedure, shortened: as §1

[2] = Pharmacokinetic and urinary clearance studies in rats; format: in vivo; settings: male, Sprague Dawley, rat, in vivo, iv, 1 mg/kg
Method: Drug solutions were prepared at 4 mg/mL in Normal Saline and the pH adjusted to 6-7 by adding the appropriate volume of 0.1 M H2SO4 or 4.2% NaHCO3. The solutions were filter-sterilized and stored at −80° C. before use. On the day of the experiment, drug solutions were diluted to 1 mg/mL with sterile Normal Saline.
Groups of 3 male Sprague Dawley rats were acclimatised for a minimum of 4 days before the study. Rats were anesthetized using isofluorane and a cannula was inserted into the jugular vein. One day after surgery, rats were dosed with an intravenous bolus injection of the solution at 1 mg/kg through the cannula, followed by washing with Normal Saline. Blood was collected manually through the cannula prior to administration of the compound and at 0.08, 0.25, 0.5, 1, 3, 6, 8 and 24 h thereafter. Plasma was harvested by centrifugation immediately after blood collection. Twenty-four hour urine samples were collected prior to and after administration of the compound in 0-4 h, 4-6 h, and 6-24 h intervals. Plasma and urine samples were frozen at −20° C.
Determination of the plasma and urine concentrations of the drug was performed by Liquid Chromatography Mass Spectrometry (LC-MS/MS). Before analysis the plasma and urine samples were prepared as follows. Plasma samples were thawed on the day of analysis and mixed with 3 volumes of acetonitrile containing 0.1% (v/v) formic acid and 100 ng/mL of internal standard. After centrifugation, supernatants were transferred to a 96-well plate and diluted 1:1 with water ready for analysis by LC-MS/MS. Urine samples were purified by solid-phase extraction (SPE) on Oasis HLB cartridges (Waters, UK) eluting with 100% methanol. An aliquot was transferred to a 96 well plate and diluted 1:1 with water before addition of internal standard solution, ready for analysis by LC-MS/MS.
The pharmacokinetic parameters were determined by non-compartmental analysis using WinNonLin v5.3. The urinary recovery was recorded as the percentage of intact drug recovered in the urine for the first 24 h after injection.

E. coli NCTC12900 = assay: MIC susceptibility testing, broth microdilution in CaMHB; format: cell-based, Escherichia coli; settings: Table 4
Procedure, shortened: as §1

E. coli NCTC9001 = assay: as above; format: cell-based, Escherichia coli; settings: Table 4
Procedure, shortened: as §1

E. coli ATCC700928 = assay: as above; format: cell-based, Escherichia coli; settings: Table 4
Procedure, shortened: as §1

E. coli ATCC25922 = assay: as above; format: cell-based, Escherichia coli
Procedure, shortened: as §1

K. pneumoniae NCTC7427 = assay: as above; format: cell-based, Klebsiella pneumoniae; settings: Table 4
Procedure, shortened: as §1

K. pneumoniae NCTC8172 = assay: as above; format: cell-based, Klebsiella pneumoniae; settings: Table 4
Procedure, shortened: as §1

[3] = system: K. pneumoniae ATCCBAA-1706; assay: as above; format: cell-based, Klebsiella pneumoniae; settings: Table 4
Procedure, shortened: as §1

K. pneumoniae ATCC 4352 = assay: as above; format: cell-based, Klebsiella pneumoniae
Procedure, shortened: as §1

HK-2 cell line = settings: 24 h incubation, resazurin reduction; Table 7A; footnote c: solubility issues noted at top concentration
Method: The renal cell toxicity of the compounds was assessed in an in vitro assay using the HK-2 cell line, an immortalized proximal tubule cell line derived from a normal human kidney. The endpoint to describe the toxicity of the compounds was the reduction of resazurin correlating with the metabolic activity of the cells.
Cells were cultured in 150 cm^2 flasks in 25 mL supplemented KSF (with 5 ng/mL EGF and 50 μg/mL BPE). Cells were maintained at 70% confluence with a maximum of 25 passages. Day 1: Media was removed and cells were washed with 10 ml DPBS. […] After 1 to 2 minutes incubation, 14 ml media was added to the flask to inactivate the trypsin. The cell suspension was transferred to a centrifuge tube and the cells pelleted at 1000 rpm for 6 minutes. The cell pellet was then resuspended in fresh media supplemented with EGF and BPE. […] 7500 cells were dispensed in each well in a volume of 160 μl and incubated at 37° C. for 24 h.
Day 2: Test compounds were prepared directly into the media. […] The microtiter plates were removed from the incubator and the media replaced with 100 μl of the dilutions of the compound solution. Every set of concentration was done in triplicate, and positive and negative controls were added to each plate. The plates were then incubated for 24 h at 37° C. with 5% CO2 in a humidified atmosphere.
Day 3: The reagent containing the resazurin (CellTiter-Blue, Promega) was diluted in PBS (1:4) and added at 20% (v/v) to each well. The plates were then incubated at 37° C. for 2 h before the fluorescent reduction product was detected.
Media only background values were subtracted before the data was analysed using GraphPad Prism. Compound concentration values were plotted as log values to enable a dose-response curve to be fitted and IC50 values determined (Table 7).
The renal cell toxicity of the additional example compounds was assessed in an in vitro assay using the HK-2 cell as described in the example above.

[4] = Table 4A, different batches of cation-adjusted Muller-Hinton broth

`CC(C)C[C@@H]1NC(=O)[C@@H](Cc2ccccc2)NC(=O)[C@H](CCN)NC(=O)[C@@H](NC(=O)[C@H](CCN)NC(=O)[C@@H](NC(=O)CCN)C(C)O)CCNC(=O)[C@H](C(C)O)NC(=O)[C@H](CCN)NC(=O)[C@H](CCN)NC1=O` (some centres unmarked) [Example 4, 3-Aminopropanoyl Polymyxin B Nonapeptide, Sulphate Salt] (H-[βAla][Thr(3ξ)][Dab][Dab][Dab][dF]L[Dab][Dab][Thr(3ξ)]; lactam 4-C) showed an MIC (P. aeruginosa ATCC10145) of 0.5 micrograms/mL, an MIC (P. aeruginosa ATCC 9721) of 0.25 micrograms/mL and an MIC [1] of 0.25 micrograms/mL. The MIC (P. aeruginosa ATCC27853; Table 4) was 0.125 micrograms/mL, the MIC (A. baumannii NCTC13423) was 1 micrograms/mL and the MIC (A. baumannii NCTC7844) was 4 micrograms/mL. The MIC (A. baumannii ATCCBAA-747) was 1 micrograms/mL, the MIC (A. baumannii ATCC19606; Table 4) was 1 micrograms/mL and the AUC(0-inf) [2] was 2030 ng·h/mL. The Cmax [2] was 2520 ng/mL, the Vd [2] was 0.69 L/kg and the clearance [2] was 8.2 mL/min/kg. The half-life [2] was 79.8 min, the MIC (E. coli NCTC12900) was 1 micrograms/mL and the MIC (E. coli NCTC9001) was 0.25 micrograms/mL. It also gave an MIC (E. coli ATCC700928) of 0.06 micrograms/mL, an MIC (E. coli ATCC25922; Table 4) of 2 micrograms/mL and an MIC (K. pneumoniae NCTC7427) of 0.06 micrograms/mL. The MIC (K. pneumoniae NCTC8172) was 2 micrograms/mL, the MIC [3] was 0.25 micrograms/mL and the MIC (K. pneumoniae ATCC 4352; K. pneumoniae ATCC 4352, Table 4) was 0.125 micrograms/mL.

With `CC(C)C[C@@H]1NC(=O)[C@@H](Cc2ccccc2)NC(=O)[C@H](CCN)NC(=O)[C@@H](NC(=O)[C@H](CCN)NC(=O)[C@@H](NC(=O)CCCCCCN)C(C)O)CCNC(=O)[C@H](C(C)O)NC(=O)[C@H](CCN)NC(=O)[C@H](CCN)NC1=O` (some centres unmarked) [Example 19, 7-Aminoheptanoyl polymyxin B nonapeptide] (H-[Ahp][Thr(3ξ)][Dab][Dab][Dab][dF]L[Dab][Dab][Thr(3ξ)]; lactam 4-C) the MIC (P. aeruginosa ATCC27853; [4]) was 0.25 micrograms/mL, the MIC (A. baumannii ATCC19606; [4]) was 16 micrograms/mL and the “IC50 HK-2 cells” value (HK-2 cell line) was 157^c μg/mL. The MIC (E. coli ATCC25922; [4]) was 1 micrograms/mL and the MIC (K. pneumoniae ATCC 4352; K. pneumoniae ATCC4352, Table 4A, different batches of cation-adjusted Muller-Hinton broth) was 2 micrograms/mL.
